Laboratory results: the supplement of paper PMC10307832

Key:
Assay in all cases: relative viability (nuclei count vs DMSO), 5 days (fraction); higher = more cells survive
GSK126 + Crizotinib = compound: CC[C@H](C)N1C=C(C2=C(C=C(C=C21)C3=CN=C(C=C3)N4CCNCC4)C(=O)NCC5=C(C=C(NC5=O)C)C)C [GSK126] + C[C@@H](Oc1cc(-c2cnn(C3CCNCC3)c2)cnc1N)c1c(Cl)ccc(F)c1Cl [Crizotinib] (partner 1 µM)
In short: (§1)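 Lung cancer cell lines were seeded in 1536-well plates and dosed by pin tool the next day, with either a single drug or a fixed anchor-drug dose combined with five library-drug doses (not always all listed) spaced in √10 steps. Five days later, one step fixed the cells and stained their nuclei (final 0.05% Triton X-100, 1% formaldehyde, 1 ug/ml Hoechst), and nuclei were counted on 4× images. Relative viability is the nuclei count in treated wells divided by the count in vehicle wells, and each value is the median of duplicate plates.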

MLN4924 + Luminespib = compound: NS(=O)(=O)OC[C@@H]1C[C@@H](n2ccc3c(N[C@H]4CCc5ccccc54)ncnc32)C[C@@H]1O [MLN4924] + CCNC(=O)c1noc(-c2cc(C(C)C)c(O)cc2O)c1-c1ccc(CN2CCOCC2)cc1 [Luminespib] (partner 0.01 µM)
In short: as §1

MLN4924 + Crizotinib = compound: NS(=O)(=O)OC[C@@H]1C[C@@H](n2ccc3c(N[C@H]4CCc5ccccc54)ncnc32)C[C@@H]1O [MLN4924] + C[C@@H](Oc1cc(-c2cnn(C3CCNCC3)c2)cnc1N)c1c(Cl)ccc(F)c1Cl [Crizotinib] (partner 1 µM)
In short: as §1

MLN4924 + Pemetrexed = compound: NS(=O)(=O)OC[C@@H]1C[C@@H](n2ccc3c(N[C@H]4CCc5ccccc54)ncnc32)C[C@@H]1O [MLN4924] + Nc1nc2[nH]cc(CCc3ccc(C(=O)N[C@@H](CCC(=O)O)C(=O)O)cc3)c2c(=O)[nH]1 [Pemetrexed] (partner 0.2 µM)
In short: as §1

Row | Cell Line | relative viability (GSK126 + Crizotinib; first compound 0.08 µM) | relative viability (GSK126 + Crizotinib; first compound 0.253 µM) | relative viability (GSK126 + Crizotinib; first compound 0.8 µM) | relative viability (GSK126 + Crizotinib; first compound 2.53 µM) | relative viability (GSK126 + Crizotinib; first compound 8 µM) | relative viability (MLN4924 + Luminespib; first compound 0.04 µM) | relative viability (MLN4924 + Luminespib; first compound 0.1265 µM) | relative viability (MLN4924 + Luminespib; first compound 0.4 µM) | relative viability (MLN4924 + Luminespib; first compound 1.265 µM) | relative viability (MLN4924 + Luminespib; first compound 4 µM) | relative viability (MLN4924 + Crizotinib; first compound 0.04 µM) | relative viability (MLN4924 + Crizotinib; first compound 0.1265 µM) | relative viability (MLN4924 + Crizotinib; first compound 0.4 µM) | relative viability (MLN4924 + Crizotinib; first compound 1.265 µM) | relative viability (MLN4924 + Crizotinib; first compound 4 µM) | relative viability (MLN4924 + Pemetrexed; first compound 0.04 µM) | relative viability (MLN4924 + Pemetrexed; first compound 0.1265 µM) | relative viability (MLN4924 + Pemetrexed; first compound 0.4 µM) | relative viability (MLN4924 + Pemetrexed; first compound 1.265 µM) | relative viability (MLN4924 + Pemetrexed; first compound 4 µM)
1 | LXF-289 | 0.821 | 0.786 | 0.799 | 0.739 | 0.8 | 0.61 | 0.425 | 0.386 | 0.153 | 0.144 | 0.605 | 0.566 | 0.508 | 0.205 | 0.126 | 0.814 | 0.77 | 0.567 | 0.177 | 0.116
2 | NCI-H23 | 0.662 | 0.486 | 0.485 | 0.523 | 0.653 | 0.231 | 0.175 | 0.228 | 0.208 | 0.214 | 0.579 | 0.481 | 0.301 | 0.122 | 0.139 | 0.74 | 0.842 | 0.421 | 0.256 | 0.213
3 | NCI-H322M | 0.965 | 0.887 | 0.833 | 1.03 | 0.873 | 1.25 | 1.11 | 0.989 | 0.488 | 0.311 | 0.85 | 0.779 | 0.834 | 0.262 | 0.399 | 0.719 | 0.776 | 0.549 | 0.3 | 0.422
4 | NCI-H358 | 0.733 | 0.577 | 0.667 | 0.608 | 0.395 | 0.338 | 0.422 | 0.214 | 0.105 | 0.111 | 0.69 | 0.506 | 0.285 | 0.168 | 0.156 | 0.177 | 0.16 | 0.134 | 0.107 | 0.128
5 | NCI-H441 | 0.936 | 0.732 | 0.642 | 0.441 | 0.86 | 0.36 | 0.387 | 0.276 | 0.208 | 0.245 | 0.866 | 0.693 | 0.361 | 0.158 | 0.169 | 0.248 | 0.222 | 0.234 | 0.139 | 0.187
6 | NCI-H460 | 1.13 | 0.929 | 0.811 | 0.9 | 0.875 | 0.0434 | 0.0335 | 0.0273 | 0.0208 | 0.0178 | 0.886 | 0.929 | 0.689 | 0.0391 | 0.0185 | 0.0658 | 0.0623 | 0.0708 | 0.059 | 0.0457
7 | NCI-H520 | 0.885 | 0.62 | 0.644 | 0.747 | 0.642 | 0.25 | 0.2 | 0.227 | 0.213 | 0.205 | 0.431 | 0.491 | 0.338 | 0.168 | 0.151 | 0.489 | 0.368 | 0.271 | 0.193 | 0.172
8 | NCI-H596 | 1.04 | 0.98 | 0.863 | 1.06 | 0.891 | 0.942 | 0.933 |  | 0.768 | 0.767 | 0.886 | 1.1 | 0.501 | 0.961 | 0.758 | 0.49 | 0.511 | 0.405 | 0.496 | 0.437
9 | NCI-H647 | 1.17 | 1.04 | 0.96 | 1.18 | 0.986 | 0.193 | 0.157 | 0.127 | 0.0558 | 0.0842 | 0.925 | 0.665 | 0.197 | 0.0313 | 0.0474 | 0.156 | 0.119 | 0.0763 | 0.0395 | 0.0465
10 | NCI-H650 | 0.912 | 0.741 | 0.658 | 0.755 | 0.594 | 0.86 | 0.543 | 0.367 | 0.17 | 0.162 | 0.676 | 0.402 | 0.289 | 0.135 | 0.179 | 0.921 | 0.471 | 0.213 | 0.15 | 0.165
11 | NCI-H661 | 0.924 | 1.04 | 0.967 | 0.787 | 0.787 | 0.744 | 0.691 | 0.484 | 0.385 | 0.351 | 0.735 | 0.721 | 0.602 | 0.462 | 0.396 | 0.773 | 0.77 | 0.494 | 0.426 | 0.44
12 | NCI-H838 | 0.798 | 0.856 | 0.834 | 0.772 | 0.752 | 0.23 | 0.279 | 0.173 | 0.12 | 0.125 | 0.635 | 0.535 | 0.235 | 0.154 | 0.139 | 0.225 | 0.2 | 0.188 | 0.173 | 0.164
13 | NCI-H1355 | 1.16 | 1.14 | 0.981 | 1.06 | 1.02 | 0.636 | 0.684 | 0.775 | 0.366 | 0.208 | 1.04 | 1.03 | 0.963 | 0.484 | 0.208 | 1.01 | 1.07 | 0.879 | 0.547 | 0.256
14 | NCI-H1437 | 0.99 | 0.914 | 0.879 | 0.797 | 0.794 | 0.783 | 1.05 | 0.811 | 0.626 | 0.226 | 0.854 | 0.77 | 0.626 | 0.336 | 0.164 | 0.314 | 0.275 | 0.28 | 0.208 | 0.177
15 | NCI-H1563 | 0.922 | 0.755 | 0.848 | 0.78 | 0.718 | 0.556 | 0.539 | 0.53 | 0.435 | 0.407 | 1.1 | 1.14 | 1.01 | 0.579 | 0.552 | 1.08 | 1.48 | 0.649 | 0.495 | 0.405
16 | NCI-H1650 | 0.886 | 1.03 | 0.917 | 0.826 | 0.888 | 0.225 | 0.217 | 0.243 | 0.224 | 0.203 | 1.04 | 0.658 | 0.333 | 0.202 | 0.166 | 0.377 | 0.471 | 0.248 | 0.168 | 0.185
17 | NCI-H1651 | 0.907 | 0.871 | 0.921 | 0.871 | 0.911 | 0.725 | 0.745 | 0.607 | 0.315 | 0.224 | 0.913 | 0.85 | 0.76 | 0.357 | 0.167 | 0.632 | 0.693 | 0.703 | 0.509 | 0.171
18 | NCI-H1666 | 1.33 | 0.838 | 0.938 | 1.04 | 1.23 | 1 | 1.05 | 0.498 | 0.324 | 0.342 | 1.18 | 0.669 | 0.306 | 0.25 | 0.236 | 0.734 | 0.742 | 0.645 | 0.409 | 0.488
19 | NCI-H1734 | 0.676 | 0.682 | 0.72 | 0.689 | 0.642 | 0.202 | 0.189 | 0.187 | 0.122 | 0.137 | 0.688 | 0.622 | 0.305 | 0.121 | 0.131 | 0.497 | 0.514 | 0.252 | 0.128 | 0.125
20 | NCI-H1755 | 0.842 | 0.915 | 0.898 | 0.86 | 0.765 | 0.441 | 0.443 | 0.238 | 0.221 | 0.231 | 0.798 | 0.761 | 0.52 | 0.181 | 0.154 | 0.378 | 0.268 | 0.282 | 0.178 | 0.186
21 | NCI-H1792 | 1.03 | 1.01 | 1.03 | 0.996 | 0.951 | 0.515 | 0.436 | 0.495 | 0.321 | 0.359 | 0.961 | 0.906 | 0.834 | 0.69 | 0.346 | 0.776 | 0.672 | 1.35 | 0.296 | 0.195
22 | NCI-H1915 | 1.02 | 0.93 | 0.917 | 0.878 | 0.912 | 0.728 | 0.639 | 0.761 | 0.231 | 0.17 | 0.862 | 0.751 | 0.844 | 0.19 | 0.15 | 0.625 | 0.66 | 0.479 | 0.144 | 0.176
23 | NCI-H1944 | 1.3 | 1.08 | 1.1 | 1.05 | 1.23 | 0.783 | 0.482 | 0.578 | 0.171 | 0.168 | 1.06 | 0.842 | 0.649 | 0.179 | 0.167 | 0.602 | 0.56 | 0.405 | 0.186 | 0.157
24 | NCI-H1975 | 0.919 | 0.91 | 0.886 | 0.96 | 0.949 | 0.322 | 0.556 | 0.36 | 0.382 | 0.252 | 0.876 | 1.11 | 1.17 | 0.484 | 0.22 | 0.284 | 0.331 | 0.278 | 0.272 | 0.209
25 | NCI-H1993 | 0.912 | 0.768 | 0.924 | 0.865 | 0.941 | 0.482 | 0.458 | 0.441 | 0.406 | 0.47 | 1.02 | 0.678 | 0.626 | 0.447 | 0.622 | 0.592 | 0.471 | 0.421 | 0.441 | 0.382
26 | NCI-H2009 | 1.08 | 0.982 | 1.06 | 0.968 | 1.06 | 0.924 | 0.553 | 0.292 | 0.18 | 0.139 | 0.859 | 0.544 | 0.242 | 0.0917 | 0.0613 | 0.941 | 0.884 | 0.218 | 0.133 | 0.0755
